Results from patent US12310974B1, “Method of treating post-traumatic stress disorder with carpipramine” (priority 2023, dated 2025).

What was measured:
[1] = test system: rats subjected to psychosocial stress; test: Context memory test after predator exposure and housing instability; type: in vivo; settings: daily i.p. 21 days: carpipramine 5, sertraline 5, amitriptyline 2, quetiapine 10 mg/kg, 5 min in chamber
Protocol: (§1) An experiment was conducted to assess the effects of carpipramine, sertraline, amitriptyline and quetiapine in rates subjected to psychosocial stress (predator exposure and housing instability) against PTSD-like behaviours, based on a protocol adapted from Zoladz et al (2012).
(§2) Adult male Sprague-Dawley rats were used in all experiments. Fifty (50) rats were pair-housed on a 12-h light/dark schedule in cages with free access to food and water.
(§3) Following a 1-week acclimation phase, they were given two 1-h cat exposures, separated by 10 days, in conjunction with daily social stress in the form of randomized housing. During each of the two cat exposures, rats were placed in a perforated wedge-shaped Plexiglas enclosure. The rats, still immobilized within the Plexiglas enclosure, were taken to the cat housing room where they were placed in a metal cage with an adult female cat for 1 hour. The Plexiglas enclosure prevented any physical contact between the cat and rats, but enabled the rats to be exposed to all non-tactile sensory stimuli associated with the cat. The two cat exposures were separated by 10 days, with the first exposure taking place during the light cycle, and the second exposure taking place during the dark cycle. Beginning on the day of the first cat exposure, rats were exposed to unstable housing conditions for the next 31 days. They were housed two rats per cage, with their cohort pair combination changed on a daily basis during the entire 31-day stress period.
(§4) The rats were randomly assigned to 5 groups of 10, treated with carpipramine, sertraline, amitriptyline, quetiapine and saline. The treatments were administered as daily intraperitoneal injections over 21 days, starting from the day following the second cat exposure. Daily doses were as following: • Carpipramine: 5 mg/kg • Sertraline: 5 mg/kg • Amitriptyline: 2 mg/kg • Quetiapine: 10 mg/kg
(§5) Since a major component of PTSD is the persistent memory of a traumatic experience, a method with which to measure a rat's memory for the cat exposure experiences was used. Thus, rats were given a predator-based form of fear conditioning. The rats were placed in a chamber for 3 minutes immediately prior to each of the two cat exposures. The chamber consisted of two aluminium sides, an aluminium ceiling and clear Plexiglas on the front and back walls and speaker on one wall. A 74 dB, 2500 Hz tone was presented during the last 30 seconds of each chamber exposure. Three weeks following the second cat exposure, the rats were tested for their conditioned fear memory by assessing their freezing response (degree of immobility) when they were returned to the chamber and exposed to the tone. […] For the cue memory test, the percentage of immobile time was measured during the last 3 minutes (i.e. during the tone).

[2] = test system: rats subjected to psychosocial stress; test: Cue memory test after predator exposure and housing instability; type: in vivo; settings: daily i.p. 21 days: carpipramine 5, sertraline 5, amitriptyline 2, quetiapine 10 mg/kg, last 3 minutes (tone)
Protocol: as §1, §2, §3, §4, §5

[3] = test system: rats subjected to psychosocial stress; test: Elevated plus maze (EPM) after predator exposure and housing instability; type: in vivo; settings: daily i.p. 21 days: carpipramine 5, sertraline 5, amitriptyline 2, quetiapine 10 mg/kg, 5 min on EPM
Protocol: as §1, §2, §3, §4
Twenty-four hours after fear conditioning memory testing, the rats were placed on an elevated plus maze (EPM) for 5 minutes. The EPM is a routine test of anxiety in rodents and consists of two open arms and two closed arms of same size (11 cm by 50 cm) that intersect each other to form the shape of a plus sign. At the beginning of each trial, the rats were placed in the intersection area of the EPM, facing one of the open arms. The primary dependent measures of interest were the amount of time rats spent in the open arms and their overall ambulations.

alpha-1 adrenoreceptors = settings: cited from earlier work
socially isolated mice [4] = test: Contextual fear conditioning and extinction (freezing) in socially isolated mice; type: in vivo; settings: for Change in duration of freezing, mean: carpipramine 10 mg/kg s.c., change from day 1
Description: Socially isolated mice express a decrease in corticolimbic allopregnanolone levels that is associated with an enhancement of contextual fear responses and impaired fear extinction. Social isolation can be seen as a prolonged stress that is often associated with a precipitating traumatic event, which leads to maladaptive post-stress adaptations and emergence of PTSD in patients. Thus, social isolation is considered to offer a suitable model to study vulnerability to PTSD.
Ten (10) male Swiss-Webster mice were socially isolated for a period of 4 weeks, in individual cages, according to a protocol proposed by Pinna et al.
Day 0—Training Test. During the training, mice were placed into the training chamber and allowed to explore it for 2 min. After this time, they received a conditioned stimulus (acoustic tone, 30 seconds, 85 dB) co-terminated with an unconditioned stimulus (electric foot shock, 2 s, 0.5 mA). This was repeated three times every 2 min. After the last stimuli, mice were allowed to explore the context for an additional minute before removal from the training chamber (total of 8 min).
Day 1—Contextual Test. Twenty-four hours after training, the mice were placed in the contextual cage, and freezing behavior was measured for 5 min without tone or foot shock presentation. Freezing was defined by the absence of any movement except for those related to respiration while the animal was in a stereotypical crouching posture. Freezing time in a index of fear response.
Days 2-5—Extinction Test. For contextual extinction experiments, mice were placed in the contextual cage for periods of 5 min over 4 consecutive days starting 24 h after the contextual test, and freezing behavior was measured.
After the contextual test, 5 mice received a dose of 10 mg/kg of carpipramine subcutaneously. Injections were repeated on days 2 to 4.

socially isolated mice [5] = test: Forced swim test after social isolation (depressive-like behaviour); type: in vivo; settings: forced swim day 36 vs pre-test day 21, minutes 3 to 6; daily s.c. for 2 weeks: carpipramine 5 mg/kg, paroxetine 1 mg/kg, olanzapine 0.3 mg/kg
Protocol: The mice were socially isolated for a period of 3 weeks in individual cages, with a 12-hour light/dark cycle. They had access to food and water at libitum. On day 21, a pre-test was performed. Cylindrical tanks were filled with water (approximately 25° C.) to a depth that prevents mice from touching the bottom. Each mouse was placed in a water-filled cylinder for 6 minutes. If the mouse was swimming or struggling after 6 minutes, it was gently submerged, so that it would struggle under the surface for up to 20 seconds. After this time elapsed, the mouse was removed from the container and placed in a transient drying cage with a heat lamp above it and a heat pad under it. The mice were closely and continuously monitored while recovering in this cage. […] The test was performed on day 36. Mice were placed again in water-filled cylinders for 6 minutes, and then moved to a drying cage. The behaviour of mice was coded over the minutes 3 to 6 of each test, in 3 categories: immobile, struggling and swimming. The time associated with each type of behaviour was recorded. A reduction in immobility time is considered predictive of antidepressant properties.

PTSD patients = test: Clinical case reports of patients with PTSD; type: in vivo, human
Description: A person was referred to a psychiatrist by […] general practitioner as they suffered from anxiety, sleep problems and nightmares. […] They were on leave from their position as a teacher. The subject was diagnosed with PTSD and a cognitive behavioural therapy was initiated.
A patient was followed by a psychiatrist due to depression symptoms, including sadness, feeling of hopelessness, apathy and anxiety. […] Fluoxetine was stopped after 6 months. About one year later, the depression symptoms recurred, alongside with auditory hallucinations. The patient was then. […] Three months later, fluoxetine was reintroduced alongside with risperidone. The patient's mood improved, but they still suffered from anxiety and auditory hallucinations. After 6 weeks with the combination of risperidone and fluoxetine, risperidone was replaced by carpipramine (150 mg/day).
A veteran presented to a psychiatrist with major depressive disorder (sadness, irritability, poor concentration, suicidal thoughts). […] New symptoms emerged, including nightmares and anxiety. […] Three months later, the patient relapsed, and was experiencing anxiety symptoms, nightmares and mildly depressed mood. The relapse was treated with carpipramine (initiated at 200 mg/day), which led to remission after 4 weeks of treatment. The patient's condition was stable for about 3 years. The symptoms (anxiety, nightmares, moderately depressed mood) reappeared after that time, together with hallucinations and flashbacks of combat. The diagnostic of PTSD was then established. Carpipramine (200 mg/day) was prescribed again, following the previous experience. The patient entered remission after 3 weeks of treatment.

DA receptors = settings: rat striatum in vitro; order of potency Y-516 > clocapramine > carpipramine; cited from earlier work
serotonin uptake = settings: studies on metabolic fate and serotonin levels in the brain; cited from earlier work
[6] = Example 6: veteran, sertraline first, switched to venlafaxine, olanzapine subsequently added
[7] = Example 5: patient, fluoxetine as initial treatment, risperidone with psychological therapy

SMILES: CN(C)CCC=C1c2ccccc2CCc2ccccc21 [Amitriptyline]
- Context memory % immobility time, mean [1]: 64.5%
- Cue memory (during tone) % immobility time, mean [2]: 42.7%
- EPM-Open arm exploration % time in open arm, mean [3]: 20.6%

SMILES: CN(C)C(=O)N[C@H]1CC[C@H](CCN2CCN(c3cccc(Cl)c3Cl)CC2)CC1 [Cariprazine]
- affinity for alpha-1 adrenoreceptors (alpha-1 adrenoreceptors): low affinity

SMILES: NC(=O)C1(N2CCCCC2)CCN(CCCN2c3ccccc3CCc3ccccc32)CC1 [Carpipramine]
- mean duration of freezing (socially isolated mice [4]; day 1 contextual test, treated group before first injection (carpipramine 10 mg/kg s.c. given after the test)): 117 s
- Change in duration of freezing, mean (socially isolated mice [4]; day 2): -76 s
- Change in duration of freezing, mean (socially isolated mice [4]; day 3): -93 s
- Change in duration of freezing, mean (socially isolated mice [4]; day 4): -98 s
- Change in duration of freezing, mean (socially isolated mice [4]; day 5): -99 s
- duration of freezing decreased to (socially isolated mice [4]; treated group after extinction tests, carpipramine 10 mg/kg s.c. day 1 and days 2 to 4, p<0.01 vs control): 18 s
- Mean change in immobility time compared to pre-test (socially isolated mice [5]): -104.3 s
- Context memory % immobility time, mean [1]: 22.3%
- Cue memory (during tone) % immobility time, mean [2]: 14.6%
- EPM-Open arm exploration % time in open arm, mean [3]: 42.1%
- clinical outcome of PTSD symptoms (PTSD patients; Example 4: person, oral carpipramine 100 mg/daily with cognitive behavioural therapy): All PTSD symptoms improved markedly
- clinical outcome (PTSD patients; Example 5: patient, carpipramine 150 mg/day replacing risperidone, alongside fluoxetine): entered in remission two weeks later
- time to remission (PTSD patients; Example 6: first relapse, carpipramine initiated at 200 mg/day): 4 weeks
- time to remission (PTSD patients; Example 6: recurrence about 3 years later, PTSD diagnosed, carpipramine 200 mg/day): 3 weeks
- affinity for DA receptors (DA receptors): high affinity
- effect on serotonin uptake (serotonin uptake): did not modify serotonin uptake

SMILES: Cc1cc2c(s1)Nc1ccccc1N=C2N1CCN(C)CC1 [Olanzapine]
- Mean change in immobility time compared to pre-test (socially isolated mice [5]): +19.5 seconds

SMILES: Fc1ccc([C@@H]2CCNC[C@H]2COc2ccc3c(c2)OCO3)cc1 [Paroxetine]
- Mean change in immobility time compared to pre-test (socially isolated mice [5]): -82.2 s

SMILES: OCCOCCN1CCN(C2=Nc3ccccc3Sc3ccccc32)CC1 [Quetiapine]
- Context memory % immobility time, mean [1]: 53.4%
- Cue memory (during tone) % immobility time, mean [2]: 39.3%
- EPM-Open arm exploration % time in open arm, mean [3]: 28.7%

SMILES: CN[C@H]1CC[C@@H](c2ccc(Cl)c(Cl)c2)c2ccccc21 [Sertraline]
- Context memory % immobility time, mean [1]: 37.1%
- Cue memory (during tone) % immobility time, mean [2]: 25.7%
- EPM-Open arm exploration % time in open arm, mean [3]: 32.5%
- clinical outcome of earlier treatments (PTSD patients; [6]): no improvement

SMILES: NC(=O)C1(N2CCCCC2)CCN(CCCN2c3ccccc3CCc3ccc(Cl)cc32)CC1 [clocapramine]
- affinity for DA receptors (DA receptors): high affinity

SMILES: CNCCC(Oc1ccc(C(F)(F)F)cc1)c1ccccc1 (stereo not drawn) [fluoxetine]
- clinical outcome of earlier treatments (PTSD patients; [7]): improvement in most symptoms, but anxiety persisted

SMILES: Cc1nc2n(c(=O)c1CCN1CCC(c3noc4cc(F)ccc34)CC1)CCCC2 [risperidone]
- clinical outcome of earlier treatments (PTSD patients; [7]): modest improvement

SMILES: COc1ccc(C(CN(C)C)C2(O)CCCCC2)cc1 (stereo not drawn) [venlafaxine]
- clinical outcome of earlier treatments (PTSD patients; [6]): some improvement, but severe symptoms persisted
